Laboratory results taken from article PMC12649549, “Sequence Permutation Generated Lysine and Tryptophan-Rich Antimicrobial Peptides with Enhanced Therapeutic Index” (Antibiotics, 2025).
Where two headings read alike, the source gives them in different places.

Columns and labels:
Gram-positive bacteria = experiment: Geometric mean MIC and therapeutic index, Gram-positive bacteria; type: cell-based; conditions: for Therapeutic Index (TI) G+: HC10/GM
Description: (§1) In this study, we aimed to investigate the potential of W5K series peptides for therapeutic use. To evaluate their efficacy for antibacterial therapy, we used the Therapeutic Index (TI) as a measure of their cell selectivity. The TI was calculated as the ratio of the concentration causing 10% hemolysis of human red blood cells (HC10) to the geometric mean minimum inhibitory concentration (GM) of the peptides against both Gram-negative and Gram-positive bacteria. This parameter was used to quantitatively assess the balance between antibacterial potency and cytotoxicity among the W5K derivatives.
(§2) The antibacterial activities of the peptides in Müller-Hinton (MH) broth and modified LYM broth were determined using the standard broth microdilution method as per Clinical and Laboratory Standards Institute (CLSI) guidelines. The LYM broth was prepared with specific components and adjusted to different conditions, including varying concentrations of NaCl and MgCl2, and different pH levels. To prepare the LYM broth, 5.4 mM KCl, 5.6 mM Na2HPO4, 0.5 mM MgSO4, and 1.0 mM sodium citrate were added. Additionally, 0.4 mg of ZnCl2, 2.0 mg of FeCl3·6H2O, 0.1 mg of CuSO4·5H2O, 0.1 mg of MnSO4·H2O, 0.1 mg of Na2B4O7∙10H2O, 700 mg of amino acid mixtures without tryptophan (Takara Bio Inc., San Jose, CA, USA), and 20 mg of L-tryptophan were added per liter of medium. The pH was adjusted to 7.4, and a vitamin mixture (100X, Sigma) and glucose concentration of 2% were added. For different conditions of LYM broth, NaCl concentrations of 300, 200, 150, and 50 mM, MgCl2 concentrations of 2.5, 1.5, and 0.5 mM, and pH levels of 6.5, 5.5, and 4.5 were adjusted. Bacterial strains were incubated in MH broth overnight, regrown, and diluted to a final concentration of 5 × 10^5 CFU/mL. Peptides were added to each well at final concentrations of 50, 25, 12.5, 6.25, 3.13, 1.56, and 0.78 µg/mL, and 99 µL of diluted microbes was loaded into each well of a polypropylene 96-well plate. […] The Morpheus HeatMap software (https://software.broadinstitute.org/morpheus/) was used to display MIC values on a color scale. All experiments were independently repeated three times.

Gram-negative bacteria = experiment: Geometric mean MIC and therapeutic index, Gram-negative bacteria; type: cell-based; conditions: for Therapeutic Index (TI) G−: HC10/GM
Description: as §1, §2

S. aureus ATCC 33592 = tested on: S. aureus ATCC 33592
Description: The antibacterial and salt-resistant activity of the peptides was tested using Escherichia coli (ATCC 25922), Pseudomonas aeruginosa Migula (ATCC 27853), Acinetobacter sp. (BCRC number 14B0091, BCRC number 14B0097, and BCRC number 14B0100), and Staphylococcus aureus sp. strains (ATCC 25923, ATCC 33591, ATCC 33592, ATCC 33593, and ATCC 6538). All bacteria were obtained from the Food Industry Research and Development Institute (Hsinchu, Taiwan) and cultured in sterilized Müller-Hinton (MH) broth at 37 °C and 200 rpm for 8 h. The inoculum concentrations were determined by measuring the optical density at 600 nm (OD 600 = 1, approximately 10^8 CFU/mL) using an Ultrospec 2100 pro UV-Visible spectrophotometer (Biochrom Ltd., Cambridge, UK) after 8 h of culture.
as §2, with “For different conditions of LYM broth, NaCl concentrations of 300, 200, 150, and 50 mM, MgCl2 concentrations of 2.5, 1.5, and 0.5 mM, and pH levels of 6.5, 5.5, and 4.5 were adjusted.” left out

[1] = tested on: Both Gram-positive and -negative bacteria; experiment: Geometric mean MIC, therapeutic index and fold changes of MIC, whole panel of strains; type: cell-based; conditions: for Therapeutic Index (TI) G−/+: HC10/GM, both Gram-positive and -negative bacteria
Description: as §1, §2

[2] = tested on: Pseudomonas aeruginosa Migula (ATCC 27853)
How it was run: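 Salt and pH tolerance was assessed by determining MICs in LYM medium containing 50–300 mM NaCl, 0.5–2.5 mM MgCl2, or at pH 4.5–6.5, alongside MH broth. The inoculum was 5 × 10^5 CFU/mL.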

[3] = Gram-positive bacteria, MH broth, MIC >50 µg/mL counted as 100 µg/mL
[4] = Gram-negative bacteria, MH broth, MIC >50 µg/mL counted as 100 µg/mL
[5] = LYM broth, 0 mM NaCl, 16 h, 37 °C
[6] = LYM broth, 50 mM NaCl, 16 h, 37 °C
[7] = LYM broth, 100 mM NaCl, 16 h, 37 °C
[8] = LYM broth, 200 mM (NaCl), 16 h, 37 °C
[9] = LYM broth, 300 mM (NaCl), 16 h, 37 °C
[10] = MH broth, 5 × 10^5 CFU/mL, 16 h, 37 °C, repeated three times
[11] = Both Gram-positive and -negative bacteria, MH broth, MIC >50 µg/mL counted as 100 µg/mL

Substance | Therapeutic Index (TI) G+ (Gram-positive bacteria; Gram-positive bacteria) | Therapeutic Index (TI) G− (Gram-negative bacteria; Gram-negative bacteria) | MIC (S. aureus ATCC 33592; [5]) | MIC (S. aureus ATCC 33592; LYM broth, 0.5 mM MgCl2) | MIC (S. aureus ATCC 33592; LYM broth, 1.5 mM MgCl2) | MIC (S. aureus ATCC 33592; LYM broth, 2.5 mM MgCl2) | MIC (S. aureus ATCC 33592; [6]) | MIC (S. aureus ATCC 33592; [7]) | MIC (S. aureus ATCC 33592; [8]) | MIC (S. aureus ATCC 33592; [9]) | MIC (S. aureus ATCC 33592; LYM broth, pH 4.5) | MIC (S. aureus ATCC 33592; LYM broth, pH 5.5) | MIC (S. aureus ATCC 33592; LYM broth, pH 6.5) | MIC (S. aureus ATCC 33592; [10]) | Therapeutic Index (TI) G−/+ [1] | MIC [2, 5] | MIC ([2]; LYM broth, 0.5 mM MgCl2) | MIC ([2]; LYM broth, 1.5 mM MgCl2) | MIC ([2]; LYM broth, 2.5 mM MgCl2) | MIC [2, 6] | further results
Ac-KWRKWLKWLAKKK-NH2 [Peptide W5K01] | 2.5 | 8.6 | 6.25 µg/mL | 6.25 µg/mL | 6.25 µg/mL | 12.5 µg/mL | 6.25 µg/mL | 12.5 µg/mL | 25 µg/mL | 50 µg/mL | 6.25 µg/mL | 6.25 µg/mL | 6.25 µg/mL | 50 µg/mL | 4.6 | 3.13 µg/mL | 3.13 µg/mL | 6.25 µg/mL | 12.5 µg/mL | 6.25 µg/mL | GM G+ (geometric mean of the MIC values) (Gram-positive bacteria; [3]): 28.7 µg/mL; GM G− (geometric mean of the MIC values) (Gram-negative bacteria; [4]): 8.2 µg/mL; GM G−/+ (geometric mean of the MIC values) [1, 11]: 15.4 µg/mL; weakening of bactericidal efficacy (MIC) ([1]; LYM broth, 2.5 mM MgCl2): 4 fold; folds higher MIC values than W5KA9W ([1]; MH broth, in most bacteria strains): 2–4 fold; MIC [2, 7]: 12.5 µg/mL; MIC [2, 8]: >50 µg/mL; MIC [2, 9]: >50 µg/mL; MIC ([2]; LYM broth, pH 4.5): 3.13 µg/mL; MIC ([2]; LYM broth, pH 5.5): 3.13 µg/mL; MIC ([2]; LYM broth, pH 6.5): 1.56 µg/mL; MIC [2, 10]: 12.5 µg/mL
Ac-KWLKWLAKKKKWR-NH2 [Peptide W5K04] | 1.6 | 5.7 | 25 µg/mL | 25 µg/mL | 25 µg/mL | 25 µg/mL | 25 µg/mL | 50 µg/mL | >50 µg/mL | >50 µg/mL | 25 µg/mL | 25 µg/mL | 12.5 µg/mL | >50 µg/mL | 3.1 | 12.5 µg/mL | 6.25 µg/mL | 12.5 µg/mL | 12.5 µg/mL | 12.5 µg/mL | GM G+ (geometric mean of the MIC values) (Gram-positive bacteria; [3]): 66.0 µg/mL; GM G− (geometric mean of the MIC values) (Gram-negative bacteria; [4]): 18.9 µg/mL; GM G−/+ (geometric mean of the MIC values) [1, 11]: 35.4 µg/mL; MIC [2, 7]: 25 µg/mL; MIC [2, 8]: >50 µg/mL; MIC [2, 9]: >50 µg/mL; MIC ([2]; LYM broth, pH 4.5): 6.25 µg/mL; MIC ([2]; LYM broth, pH 5.5): 6.25 µg/mL; MIC ([2]; LYM broth, pH 6.5): 3.13 µg/mL; MIC [2, 10]: 50 µg/mL
Ac-KKKKWRKWLKWLA-NH2 [Peptide W5K11] | 13.0 | 34.5 | 3.13 µg/mL | 3.13 µg/mL | 3.13 µg/mL | 3.13 µg/mL | 3.13 µg/mL | 3.13 µg/mL | 3.13 µg/mL | 6.25 µg/mL | 3.13 µg/mL | 3.13 µg/mL | 1.56 µg/mL | 6.25 µg/mL | 21.2 | 1.56 µg/mL | 1.56 µg/mL | 1.56 µg/mL | 3.13 µg/mL | 1.56 µg/mL | GM G+ (geometric mean of the MIC values) (Gram-positive bacteria): 5.4 µg/mL; GM G− (geometric mean of the MIC values) (Gram-negative bacteria): 2.1 µg/mL; GM G−/+ (geometric mean of the MIC values) [1]: 3.3 µg/mL; weakening of antibacterial efficacy (MIC) ([1]; LYM broth, 300 mM NaCl): up to 3 fold; weakening of antibacterial efficacy (MIC) ([1]; LYM broth, MgCl2 rising above 0.5 mM): up to 2 fold; MIC [2, 7]: 1.56 µg/mL; MIC [2, 8]: 3.13 µg/mL; MIC [2, 9]: 6.25 µg/mL; MIC ([2]; LYM broth, pH 4.5): 1.56 µg/mL; MIC ([2]; LYM broth, pH 5.5): 1.56 µg/mL; MIC ([2]; LYM broth, pH 6.5): 1.56 µg/mL; MIC [2, 10]: 3.13 µg/mL
